# In patent publication US10774064B2 (Cadent Therapeutics, Inc., priority 2016, dated 2020):
# Structures can show the parent of a compound that is named as a salt.
# Target: T1, small-conductance Ca2+-activated K+ channels (SK channels, subtype 2) (Homo sapiens, UniProt Q9H2S1)
# T1 construct: expressed in transfected cells; host or cells: HEK293
# Experiment: whole-cell patch-clamp of ionic current through SK2 channels in HEK293 cells (SC100)
# Type: cell-based
# Details: concentration that increases the basal current by 100%; HEK293 cells expressing SK2 channels
# In short: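 Whole-cell patch-clamp recording of current in HEK293 cells expressing SK2 channels. SC100 is the compound concentration that increases basal current by 100%.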
row,SMILES,SC100
1,"Cc1cc(NC2CCC(F)(F)CC2)nc(-c2nc(C3CC3)cs2)n1 [Compound 267, 2-(4-cyclopropylthiazol-2-yl)-N-(4,4-difluorocyclohexyl)-6-methylpyrimidin-4-amine]",+ (+ means >1 uM)
2,"CCc1cc(NC2CCC(F)(F)CC2)nc(-n2nc(C)cc2C)n1 [Compound 171, N-(4,4-difluorocyclohexyl)-2-(3,5-dimethyl-1H-pyrazol-1-yl)-6-ethylpyrimidin-4-amine]",++ (++ means 200 nM-1000 nM)
3,"COC(=O)N1CC(Oc2cc(NC3CCC(F)(F)CC3)nc(-c3nc(C(F)F)cs3)n2)C1 [Compound 330, methyl 3-((6-((4,4-difluorocyclohexyl)amino)-2-(4-(difluoromethyl)thiazol-2-yl)pyrimidin-4-yl)oxy)azetidine-1-carboxylate]",++ (++ means 200 nM-1000 nM)
4,"Cc1cc(NC2CCC(C(F)(F)F)CC2)nc(-n2ccc(C)n2)c1 (centres unmarked) [Compound 180, 4-methyl-6-(3-methyl-1H-pyrazol-1-yl)-N-(4-(trifluoromethyl)cyclohexyl)pyridin-2-amine]",+ (+ means >1 uM)
5,"CCC(=O)N1CC(Oc2cc(NC3CCC(F)(F)CC3)nc(-n3ccc(CF)n3)n2)C1 [Compound 288, 1-(3-((6-((4,4-difluorocyclohexyl)amino)-2-(3-(fluoromethyl)-1H-pyrazol-1-yl)pyrimidin-4-yl)oxy)azetidin-1-yl)propan-1-one]",++ (++ means 200 nM-1000 nM)
6,"Cc1cc(C)n(-c2nc(CN3CCOCC3)cc(NC3CCC(F)(F)CC3)n2)n1 [Compound 176, N-(4,4-difluorocyclohexyl)-2-(3,5-dimethyl-1H-pyrazol-1-yl)-6-(morpholinomethyl)pyrimidin-4-amine]",+ (+ means >1 uM)
7,"Cc1cc(C)n(Cc2cc(NC3CCC(F)(F)CC3)nc(-n3ccc(CF)n3)n2)n1 [Compound 300, N-(4,4-difluorocyclohexyl)-6-((3,5-dimethyl-1H-pyrazol-1-yl)methyl)-2-(3-(fluoromethyl)-1H-pyrazol-1-yl)pyrimidin-4-amine]",+ (+ means >1 uM)
8,"CC(C)C(=O)N1CC(Oc2cc(NC3CCC(F)(F)CC3)nc(-c3nc(CF)cs3)n2)C1 [Compound 342, 1-(3-((6-((4,4-difluorocyclohexyl)amino)-2-(4-(fluoromethyl)thiazol-2-yl)pyrimidin-4-yl)oxy)azetidin-1-yl)-2-methylpropan-1-one]",++ (++ means 200 nM-1000 nM)
9,"Cc1cc(C)n(-c2cc(NC(C)C(N)=O)nc(NC3CCC(F)(F)CC3)n2)n1 (centres unmarked) [Compound 107, 2-((2-((4,4-difluorocyclohexyl)amino)-6-(3,5-dimethyl-1H-pyrazol-1-yl)pyrimidin-4-yl)amino)propanamide]",+ (+ means >1 uM)
10,"Cc1cc(C)n(-c2cc(NCc3nnc(C)o3)cc(NC3CCC(F)(F)CC3)n2)n1 [Compound 252, N2-(4,4-difluorocyclohexyl)-6-(3,5-dimethyl-1H-pyrazol-1-yl)-N4-((5-methyl-1,3,4-oxadiazol-2-yl)methyl)pyridine-2,4-diamine]",+ (+ means >1 uM)
11,"Cc1cc(C)n(-c2nc(NC3CCC(F)(F)CC3)cc(N3CCO[C@H](CO)C3)n2)n1 (single isomer, unassigned) [Compound 113, (−)-(4-(6-((4,4-difluorocyclohexyl)amino)-2-(3,5-dimethyl-1H-pyrazol-1-yl)pyrimidin-4-yl)morpholin-2-yl)methanol]",++ (++ means 200 nM-1000 nM)
12,"Cc1cc(C)n(-c2nc(NC3CCC(F)(F)CC3)cc(N[C@@H]3CCN(C)C3=O)n2)n1 [Compound 129, (−)-3-((6-((4,4-difluorocyclohexyl)amino)-2-(3,5-dimethyl-1H-pyrazol-1-yl)pyrimidin-4-yl)amino)-1-methylpyrrolidin-2-one]",+ (+ means >1 uM)
13,"Cc1cc(C)n(-c2nc3c(c(NC4CCC(F)(F)CC4)n2)CCN(CC(N)=O)C3)n1 [Compound 121, 2-(4-((4,4-difluorocyclohexyl)amino)-2-(3,5-dimethyl-1H-pyrazol-1-yl)-5,8-dihydropyrido[3,4-d]pyrimidin-7(6H)-yl)acetamide]",+ (+ means >1 uM)

# Same assay, conditions: whole-cell patch-clamp, HEK293 cells expressing SK2 channels; concentration that increases the basal current by 100%
row,SMILES,SC100 (μM)
1,"CC(=O)N1CCN(c2cc(-c3cccc(C)n3)nc(NC3CCC(F)(F)CC3)n2)CC1 [NSSy6989, 1-(4-(2-((4,4-difluorocyclohexyl)amino)-6-(6-methylpyridin-2-yl)pyrimidin-4-yl)piperazin-1-yl)ethan-1-one]",+ (+ means >1 uM)
2,"Cc1csc(-c2nc(NC3CCC(F)(F)CC3)cc(C(C)F)n2)n1 (centres unmarked) [IN10876-092-P1, N-(4,4-difluorocyclohexyl)-6-(1-fluoroethyl)-2-(4-methylthiazol-2-yl)pyrimidin-4-amine]",++ (++ means 200 nM-1000 nM)
3,"COC1CCC(Nc2cc(N3CCOCC3)nc(-n3ccc(C)n3)n2)CC1 (centres unmarked) [NSSy6529, N-(4-methoxycyclohexyl)-2-(3-methyl-1H-pyrazol-1-yl)-6-morpholinopyrimidin-4-amine]",+ (+ means >1 uM)
4,Cc1ccn(-c2nc(NC3CCC(C#N)CC3)cc(N3CCOCC3)n2)n1 (centres unmarked) [NSSy6526],+ (+ means >1 uM)
5,Cc1ccn(-c2nc(C(C)O)cc(N(C)C3CCCCC3C)n2)n1 (centres unmarked) [IN10881-059-P1],+ (+ means >1 uM)
6,Cc1csc(-c2nc(NC3CCC(F)(F)CC3)cc(OC3CCOCC3)n2)n1 [IN11079-007-P1],+ (+ means >1 uM)
7,"Cc1csc(-c2nc(NC3CCC(F)(F)CC3)cc(C(C)N3CCOCC3)n2)n1 (centres unmarked) [IN10973-028-P1, N-(4,4-difluorocyclohexyl)-2-(4-methylthiazol-2-yl)-6-(1-morpholinoethyl)pyrimidin-4-amine]",+ (+ means >1 uM)
8,COC(=O)N1CC(Oc2cc(NC3CCC(F)(F)CC3)nc(-n3ccc(F)n3)n2)C1 [NSSy6162],++ (++ means 200 nM-1000 nM)
9,"COCc1cc(NC2CCC(F)(F)CC2)nc(-c2nc(C)cs2)n1 [NSSy5779, N-(4,4-difluorocyclohexyl)-6-(methoxymethyl)-2-(4-methylthiazol-2-yl)pyrimidin-4-amine]",++ (++ means 200 nM-1000 nM)
10,"Cc1ccn(-c2nc(N3CCOCC3)cc3c2CCN3)n1 [IN11063-092-P1, 4-(4-(3-methyl-1H-pyrazol-1-yl)-2,3-dihydro-1H-pyrrolo[3,2-c]pyridin-6-yl)morpholine hydrochloride]",+ (+ means >1 uM)
11,"Cc1csc(-c2nc(NC3CCC(F)(F)CC3)cc(N3CCOCC3COC(C)C)n2)n1 (centres unmarked) [IN10965-091-P1, N-(4,4-difluorocyclohexyl)-6-(3-(isopropoxymethyl)morpholino)-2-(4-methylthiazol-2-yl)pyrimidin-4-amine]",+ (+ means >1 uM)
12,"Cc1ccn(-c2cc(COC(N)=O)cc(NC3CCC(F)(F)CC3)n2)n1 [NSSy6891, (2-((4,4-difluorocyclohexyl)amino)-6-(3-methyl-1H-pyrazol-1-yl)pyridin-4-yl)methyl carbamate]",++ (++ means 200 nM-1000 nM)
13,Cc1ccn(-c2cc(CN3CCCOC3=O)cc(NC3CCC(F)(F)CC3)n2)n1 [IN11083-014-P1],+ (+ means >1 uM)
14,Cc1ccn(-c2nc(N[C@@H]3CCCC[C@H]3F)cc(N3CCOCC3)n2)n1 [IN11133-031-P1],+ (+ means >1 uM)
15,"OCc1cc(NC2CCC(F)(F)CC2)nc(-n2ccc(C(F)(F)F)n2)c1 [IN11133-097-P1, (2-((4,4-difluorocyclohexyl)amino)-6-(3-(trifluoromethyl)-1H-pyrazol-1-yl)pyridin-4-yl) methanol]",++ (++ means 200 nM-1000 nM)
16,FCc1ccn(-c2nc(NC3CC=CCC3)cc(N3CCOCC3)n2)n1 (centres unmarked),+ (+ means >1 uM)
17,Cc1cc(C)n(-c2nc(N[C@@H]3CCCC[C@H]3F)cc(N3CCOCC3)n2)n1 [IN11146-016-P1],+ (+ means >1 uM)
18,Cc1csc(-c2nc(NC3CCC(F)(F)CC3)cc(OC3CC(C)(O)C3)n2)n1 (centres unmarked) [NSSy5740],++ (++ means 200 nM-1000 nM)
19,"Cc1cc(NC2CCC(F)(F)CC2)nc(-n2ccc(C(C)F)n2)n1 (centres unmarked) [IN11243-042-P1, N-(4,4-difluorocyclohexyl)-2-(3-(1-fluoroethyl)-1H-pyrazol-1-yl)-6-methylpyrimidin-4-amine]",++ (++ means 200 nM-1000 nM)
20,"Cc1ccc(-c2nc(NC3CCC(F)(F)CC3)cc(N3CCOCC3)n2)o1 [IN10971-077-P1, N-(4,4-difluorocyclohexyl)-2-(5-methylfuran-2-yl)-6-morpholinopyrimidin-4-amine]",+ (+ means >1 uM)
21,COC(=O)N1CC(Oc2cc(NC34CC5CC(CC(C5)C3)C4)nc(-n3ccc(C)n3)n2)C1 [NSSy6097],+++ (+++ means <200 nM)
22,FCc1ccn(-c2nc(NC3CCC(F)CC3)cc(N3CCOCC3)n2)n1 (centres unmarked),+ (+ means >1 uM)
23,"COC(=O)N1CC(Oc2cc(NC3CCC(F)(F)CC3)[n+]([O-])c(-n3ccc(C)n3)n2)C1 [NSSy6072, 6-((4,4-difluorocyclohexyl)amino)-4-((1-(methoxycarbonyl)azetidin-3-yl)oxy)-2-(3-methyl-1H-pyrazol-1-yl)pyrimidine 1-oxide]",+ (+ means >1 uM)
24,"Cc1csc(-c2nc(NC3CCC(F)(F)CC3)cc(C(C)O)n2)n1 (centres unmarked) [IN10880-035-P1, 1-(6-((4,4-difluorocyclohexyl)amino)-2-(4-methylthiazol-2-yl)pyrimidin-4-yl) ethan-1-ol]",++ (++ means 200 nM-1000 nM)
25,"COc1c(NC2CCC(F)(F)CC2)nc(-c2nc(C)cs2)nc1C(C)O (centres unmarked) [IN11104-039-P1, 1-(6-((4,4-difluorocyclohexyl)amino)-5-methoxy-2-(4-methylthiazol-2-yl)pyrimidin-4-yl)ethan-1-ol]",+ (+ means >1 uM)
26,Cc1csc(-c2nc(NC3CCCCC3)cc(N3CCS(=O)(=O)CC3)n2)n1 [NSSy6131],+++ (+++ means <200 nM)
27,Cc1ccn(-c2nc(NC(C)(C)C)cc(N3CCOC(CO)C3)n2)n1 (centres unmarked) [IN10882-083-P1],+ (+ means >1 uM)
28,COc1cc(NC2CCC(F)(F)CC2)nc(-n2ccc(C3CC3)n2)n1 [NSSy6850],++ (++ means 200 nM-1000 nM)
